Source: PubChem BioAssay AID2060627 (Molecular Pharmacology Branch, DTP, NCI, 2025)
Values belong to the molecule of their own block, whether it stands above or below them.

System: 156681-154-R-J1-PDC complex spheroid viability
Assay: Anticancer human tumor 156681-154-R-J1-PDC patient-derived melanoma cell line growth inhibition [CLK]
Details: for IC50: curve of first compound; for viability, T/C: stronger effect = lower value
Text: A high-throughput screen of multi-cell type tumor spheroids was designed to identify active combinations of […] and targeted small molecules. Complex spheroids include a stromal component modeled by human endothelial cells (HUVEC) and fibroblasts modeled by human mesenchymal stem cells (MSCs). The concentration ranges selected for each drug and investigational agent were based upon clinically achievable concentrations if the clinical Cmax of the agent was known.
Compounds. The drugs and investigational agents: cirtuvivint (SM08502; NSC835563), CC-671 (NSC850746), vemurafenib (NSC761431), tapotoclax (NSC804041), sotorasib (NSC818433), adagrasib (NSC831453), MRTX-1133 (NSC836407), BAY2416964 (NSC825713), copanlisib (NSC816437), inavolisib (NSC800729), abemaciclib (NSC768073), osimertinib (NSC779217), entinostat (NSC756642), eltanexor (KPT-8602, NSC794443), venetoclax (NSC766270), ceralasertib (NSC777638), bortezomib (NSC756655), olaparib (NSC753686), talazoparib (NSC767125), alisertib (NSC759677), peposertib (NSC802822), gemcitabine (NSC613327), 5-fluorouracil (NSC19893), SN-38 (NSC673596), oxaliplatin (NSC266046), paclitaxel (NSC125973), and doxorubicin (NSC123127), were obtained from the National Cancer Institute (NCI) Developmental Therapeutics Program Chemical Repository. The FDA-approved anticancer drug set is available from the Developmental Therapeutics Program at https://dtp.cancer.gov/organization/dscb/obtaining/available plates.htm. […] The stock solutions were prepared in dimethyl sulfoxide (DMSO, Sigma-Aldrich, St. Louis, MO, cat. D2650), except for the platinum complexes which were prepared in saline (Quality Biological, Gaithersburg, MD, cat. 114-055-101), at 800-fold the tested concentration and stored at -70 degrees C prior to their use. All drugs and investigational agents were tested over a range starting from a high concentration at or near the clinical Cmax and decreasing in half-log increments. If the clinical Cmax for an agent had not been determined, the highest concentration tested was 10 microM.
Cell Culture. All cells were maintained in an incubator at 37 degrees C and 5% CO2 with 95% humidity. The PDC lines were cultured according to standard operating procedures established by the NCI PDMR. Briefly, all PDCs were thawed and cultured in Matrigel-coated flasks prepared with a working solution of 1X Ham's F-12 nutrient mix, without supplementation (Invitrogen, Waltham, MA, cat. 11765054), 100 U/mL penicillin-streptomycin (Invitrogen, cat. 15140122), and 2.5% Matrigel (Corning Inc., Corning, NY, cat. 354248) for the first three passages. The 947758-054-R-J2-PDC line was cultured in 6B/Colon 1A media, which includes advanced DMEM/F-12 (Thermo Fisher Scientific, cat. 12634028), 10 mM HEPES (Thermo Fisher Scientific, cat. 15630080), 1X GlutaMAX supplement (Thermo Fisher Scientific, cat. 35050061), 0.1 mg/mL primocin (InvivoGen, cat. ant-pm-2), 10% defined fetal bovine serum, heat inactivated (HyClone Laboratories Inc., cat. SH30070.03HI), 1.25 mM N-Acetyl-L-cysteine (Sigma-Aldrich, cat. A9165), 10 mM nicotinamide (Sigma-Aldrich, cat. N0636), 1X B-27 supplement (Thermo Fisher Scientific, cat. 17504044), 1X N-2 supplement (Thermo Fisher Scientific, cat. 17502048), and 10 microM Y-27632 dihydrochloride (Tocris Bioscience, cat. 1254). The 876862-298-R-J1-PDC was cultured in 6E media, which includes all 6B/Colon 1A media components plus 50% L-WRN conditioned media (ATCC, cat. CRL-3276), 50 ng/mL recombinant human EGF recombinant protein (hEGF; Thermo Fisher Scientific, cat. PHG0311), 10 ng/mL recombinant human fibroblast growth factor 10 (hGFG-10; PeproTech, cat. 100-26), 1 ng/mL recombinant human fibroblast growth factor 2 (hFGF-2; PeproTech, cat. 100-18B), and 1 µM prostaglandin E2 (PGE2; Tocris, cat. 2296). The 227483-062-R1-J1-PDC line was cultured in Panc media, containing all 6E components except hFGF-2, with the addition of 500 nM SB-431542 (Selleckchem, cat. S1067) and 10 nM gastrin (Tocris, cat. 3006). […]
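Further: spheroids exposed to the agents for seven days.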
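Wherever viability, T/C is given: 100% = DMSO vehicle control viability.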

SMILES: NC(=O)C(=Cn1cnc(-c2cc(C(F)(F)F)cc(C(F)(F)F)c2)n1)c1cncnc1 + CN1CCN(c2cc(C(=O)Nc3cc4cc(-c5cnn(C)c5)ccc4cn3)ccn2)CC1
IC50 (second compound 0.0316 µM): 0.061 µM
IC50 (second compound 0.1 µM): 0.0313 µM
IC50 (second compound 0.316 µM): < 0.00949 µM
IC50 (second compound 1 µM): < 0.00949 µM
IC50 (second compound 3.16 µM): < 0.00949 µM
IC50 (second compound 10 µM): < 0.00949 µM
viability, T/C (second compound 0.0316 µM, first compound 0.00949 µM): 93.5%
viability, T/C (second compound 0.0316 µM, first compound 0.03 µM): 63.4%
viability, T/C (second compound 0.0316 µM, first compound 0.0949 µM): 45.5%
viability, T/C (second compound 0.0316 µM, first compound 0.3 µM): 13.1%
viability, T/C (second compound 0.0316 µM, first compound 0.949 µM): 4.9%
viability, T/C (second compound 0.0316 µM, first compound 3 µM): 3.07%
viability, T/C (second compound 0.1 µM, first compound 0.00949 µM): 64.3%
viability, T/C (second compound 0.1 µM, first compound 0.03 µM): 50.4%
viability, T/C (second compound 0.1 µM, first compound 0.0949 µM): 26.6%
viability, T/C (second compound 0.1 µM, first compound 0.3 µM): 6.93%
viability, T/C (second compound 0.1 µM, first compound 0.949 µM): 2.72%
viability, T/C (second compound 0.1 µM, first compound 3 µM): 1.03%
viability, T/C (second compound 0.316 µM, first compound 0.00949 µM): 10.8%
viability, T/C (second compound 0.316 µM, first compound 0.03 µM): 8.6%
viability, T/C (second compound 0.316 µM, first compound 0.0949 µM): 1.88%
viability, T/C (second compound 0.316 µM, first compound 0.3 µM): 0.07%
viability, T/C (second compound 0.316 µM, first compound 0.949 µM): 1.67%
viability, T/C (second compound 0.316 µM, first compound 3 µM): 1.86%
viability, T/C (second compound 1 µM, first compound 0.00949 µM): 0.14%
viability, T/C (second compound 1 µM, first compound 0.03 µM): 0.33%
viability, T/C (second compound 1 µM, first compound 0.0949 µM): 0.11%
viability, T/C (second compound 1 µM, first compound 0.3 µM): 0.39%
viability, T/C (second compound 1 µM, first compound 0.949 µM): 2.63%
viability, T/C (second compound 1 µM, first compound 3 µM): 0.65%
viability, T/C (second compound 3.16 µM, first compound 0.00949 µM): 0.07%
viability, T/C (second compound 3.16 µM, first compound 0.03 µM): 2.18%
viability, T/C (second compound 3.16 µM, first compound 0.0949 µM): 2.61%
viability, T/C (second compound 3.16 µM, first compound 0.3 µM): 1.32%
viability, T/C (second compound 3.16 µM, first compound 0.949 µM): 1.52%
viability, T/C (second compound 3.16 µM, first compound 3 µM): 0.84%
viability, T/C (second compound 10 µM, first compound 0.00949 µM): 0.07%
viability, T/C (second compound 10 µM, first compound 0.03 µM): 1.56%
viability, T/C (second compound 10 µM, first compound 0.0949 µM): 1.25%
viability, T/C (second compound 10 µM, first compound 0.3 µM): 2.65%
viability, T/C (second compound 10 µM, first compound 0.949 µM): 2.11%
viability, T/C (second compound 10 µM, first compound 3 µM): 0.95%

IC50 (second compound 0.0316 µM): 5.04 µM
IC50 (second compound 0.1 µM): 4.19 µM
IC50 (second compound 0.316 µM): 3.25 µM
IC50 (second compound 1 µM): 1.86 µM
IC50 (second compound 3.16 µM): < 0.0316 µM
IC50 (second compound 10 µM): < 0.0316 µM
SMILES: CC1(C)CCC(CN2CCN(c3ccc(C(=O)NS(=O)(=O)c4ccc(NCC5CCOCC5)c([N+](=O)[O-])c4)c(Oc4cnc5[nH]ccc5c4)c3)CC2)=C(c2ccc(Cl)cc2)C1 + CNC(=O)c1ccc(Nc2nc(OC3CCCC3)c3c(-c4ccc5nc(C)oc5c4)c[nH]c3n2)c(OC)c1
viability, T/C (second compound 0.0316 µM, first compound 0.0316 µM): 92.9%
viability, T/C (second compound 0.0316 µM, first compound 0.1 µM): 101%
viability, T/C (second compound 0.0316 µM, first compound 0.316 µM): 103%
viability, T/C (second compound 0.0316 µM, first compound 1 µM): 96.8%
viability, T/C (second compound 0.0316 µM, first compound 3.16 µM): 83%
viability, T/C (second compound 0.0316 µM, first compound 10 µM): 1.52%
viability, T/C (second compound 0.1 µM, first compound 0.0316 µM): 66.6%
viability, T/C (second compound 0.1 µM, first compound 0.1 µM): 80%
viability, T/C (second compound 0.1 µM, first compound 0.316 µM): 82%
viability, T/C (second compound 0.1 µM, first compound 1 µM): 70.4%
viability, T/C (second compound 0.1 µM, first compound 3.16 µM): 65.8%
viability, T/C (second compound 0.1 µM, first compound 10 µM): 0.92%
viability, T/C (second compound 0.316 µM, first compound 0.0316 µM): 67.1%
viability, T/C (second compound 0.316 µM, first compound 0.1 µM): 72.9%
viability, T/C (second compound 0.316 µM, first compound 0.316 µM): 65.2%
viability, T/C (second compound 0.316 µM, first compound 1 µM): 74.1%
viability, T/C (second compound 0.316 µM, first compound 3.16 µM): 51.2%
viability, T/C (second compound 0.316 µM, first compound 10 µM): 0.88%
viability, T/C (second compound 1 µM, first compound 0.0316 µM): 59.7%
viability, T/C (second compound 1 µM, first compound 0.1 µM): 62.7%
viability, T/C (second compound 1 µM, first compound 0.316 µM): 46.6%
viability, T/C (second compound 1 µM, first compound 1 µM): 57%
viability, T/C (second compound 1 µM, first compound 3.16 µM): 44.8%
viability, T/C (second compound 1 µM, first compound 10 µM): 2.29%
viability, T/C (second compound 3.16 µM, first compound 0.0316 µM): 42.6%
viability, T/C (second compound 3.16 µM, first compound 0.1 µM): 37.8%
viability, T/C (second compound 3.16 µM, first compound 0.316 µM): 36.2%
viability, T/C (second compound 3.16 µM, first compound 1 µM): 50.4%
viability, T/C (second compound 3.16 µM, first compound 3.16 µM): 32.1%
viability, T/C (second compound 3.16 µM, first compound 10 µM): 1.28%
viability, T/C (second compound 10 µM, first compound 0.0316 µM): 46.6%
viability, T/C (second compound 10 µM, first compound 0.1 µM): 34.7%
viability, T/C (second compound 10 µM, first compound 0.316 µM): 39.9%
viability, T/C (second compound 10 µM, first compound 1 µM): 41.4%
viability, T/C (second compound 10 µM, first compound 3.16 µM): 30.2%
viability, T/C (second compound 10 µM, first compound 10 µM): 0.58%
